#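 GI50 = concentration required for 50% inhibition of growth. TGI denotes the concentration required for complete inhibition of growth.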
# What was measured:
# Assay in all cases: NCI tumour cell line growth inhibition, 384-well format
# [1] = system: KM12 colon
# [2] = system: OVCAR-4 ovarian
# [3] = system: OVCAR-3 ovarian
# [4] = system: MDA-MB-468 breast
# [5] = system: NCI-H460 NSCLC
# [6] = system: HOP-92 NSCLC
# [7] = system: A498 renal
# [8] = system: OVCAR-8 ovarian
# [9] = system: A549 NSCLC
# [10] = system: RXF 393 renal
# [11] = system: ACHN renal
# [12] = system: UACC-257 melanoma
# [13] = system: SN12C renal
# [14] = system: HCC-2998 colon
# [15] = system: MDA-MB-435 melanoma
# [16] = system: NCI-H226 lung
# [17] = system: SK-MEL-2 melanoma
# [18] = system: M14 melanoma
# [19] = system: EKVX NSCLC
# [20] = system: HT29 colon
# [21] = system: UO-31 renal
# [22] = system: K-562 leukemia
# [23] = system: MALME-3M melanoma
# [24] = system: NCI-H23 lung
# [25] = system: LOX IMVI melanoma
# [26] = system: MCF7 breast
# [27] = system: TK-10 renal
# [28] = system: OVCAR-5 ovarian
# [29] = system: SNB-19 CNS
# [30] = system: U251 glioblastoma
# [31] = system: MDA-MB-231 breast
# [32] = system: SW-620 colon
# [33] = system: SF-539 CNS
# [34] = system: T-47D breast
# [35] = system: SF-295 CNS
# [36] = system: CAKI-1 renal
# [37] = system: MOLT-4 leukemia
# [38] = system: HOP-62 NSCLC
# [39] = system: SK-MEL-5 melanoma
# [40] = system: 786-0 renal
# [41] = system: SNB-75 CNS
# [42] = system: HCT-116 colon
# [43] = system: HS 578T breast
# [44] = system: HCT-15 colon
# [45] = system: SK-OV-3 ovarian
# [46] = system: IGROV1 ovarian
# [47] = system: NCI/ADR-RES ovarian
# [48] = system: SF-268 CNS
# [49] = system: HL-60(TB) leukemia
# [50] = system: NCI-H322M lung
# [51] = system: DU-145 prostate
# [52] = system: UACC-62 melanoma
# [53] = system: SK-MEL-28 melanoma
# [54] = system: BT-549 breast
# [55] = system: RPMI-8226 leukemia
# [56] = system: NCI-H522 lung
# [57] = system: COLO 205 colon
# [58] = system: PC-3 prostate
# [59] = system: SR leukemia
# [60] = system: CCRF-CEM leukemia
compound,measurement,setting,value
CC(C)C[C@H](NC(=O)CNC(=O)c1cc(Cl)ccc1Cl)B1OC(=O)CC(CC(=O)O)(C(=O)O)O1 (some centres undefined),GI50,[1],0.0547 µM
same,TGI,[1],0.148 µM
same,GI50,[2],0.0532 µM
same,TGI,[2],0.117 µM
same,GI50,[3],< 0.0143 µM
same,TGI,[3],0.0264 µM
same,GI50,[4],< 0.0144 µM
same,TGI,[4],< 0.0206 µM
same,GI50,[5],0.0923 µM
same,TGI,[5],0.317 µM
same,GI50,[6],0.03 µM
same,TGI,[6],0.0718 µM
same,GI50,[7],< 0.0237 µM
same,TGI,[7],0.191 µM
same,GI50,[8],0.0668 µM
same,TGI,[8],0.158 µM
same,GI50,[9],0.106 µM
same,TGI,[9],1.51 µM
same,GI50,[10],< 0.014 µM
same,TGI,[10],0.0271 µM
same,GI50,[11],< 0.0203 µM
same,TGI,[11],0.0637 µM
same,GI50,[12],0.0173 µM
same,TGI,[12],0.0333 µM
same,GI50,[13],0.0873 µM
same,TGI,[13],0.263 µM
same,GI50,[14],0.0515 µM
same,TGI,[14],0.101 µM
same,GI50,[15],< 0.0148 µM
same,TGI,[15],0.0283 µM
same,GI50,[16],< 0.0135 µM
same,TGI,[16],0.0245 µM
same,GI50,[17],0.0215 µM
same,TGI,[17],0.042 µM
same,GI50,[18],0.0165 µM
same,TGI,[18],0.0326 µM
same,GI50,[19],0.0974 µM
same,TGI,[19],0.448 µM
same,GI50,[20],0.0234 µM
same,TGI,[20],0.0624 µM
same,GI50,[21],0.018 µM
same,TGI,[21],0.0366 µM
same,GI50,[22],0.0172 µM
same,TGI,[22],0.035 µM
same,GI50,[23],< 0.0137 µM
same,TGI,[23],0.0275 µM
same,GI50,[24],0.0268 µM
same,TGI,[24],0.0755 µM
same,GI50,[25],0.0339 µM
same,TGI,[25],0.125 µM
same,GI50,[26],< 0.0213 µM
same,TGI,[26],0.619 µM
same,GI50,[27],< 0.018 µM
same,TGI,[27],0.053 µM
same,GI50,[28],0.0505 µM
same,TGI,[28],0.181 µM
same,GI50,[29],0.0594 µM
same,TGI,[29],0.272 µM
same,GI50,[30],0.0985 µM
same,TGI,[30],0.472 µM
same,GI50,[31],0.0333 µM
same,TGI,[31],0.0863 µM
same,GI50,[32],< 0.0153 µM
same,TGI,[32],0.0332 µM
same,GI50,[33],0.0151 µM
same,TGI,[33],0.0313 µM
same,GI50,[34],0.0256 µM
same,TGI,[34],0.0708 µM
same,GI50,[35],0.0305 µM
same,TGI,[35],0.0884 µM
same,GI50,[36],< 0.0204 µM
same,TGI,[36],0.152 µM
same,GI50,[37],< 0.0128 µM
same,TGI,[37],< 0.0174 µM
same,GI50,[38],0.0423 µM
same,TGI,[38],0.164 µM
same,GI50,[39],< 0.0155 µM
same,TGI,[39],0.0281 µM
same,GI50,[40],0.024 µM
same,TGI,[40],0.0916 µM
same,GI50,[41],0.0474 µM
same,TGI,[41],0.118 µM
same,GI50,[42],< 0.0159 µM
same,TGI,[42],0.0347 µM
same,GI50,[43],0.0167 µM
same,TGI,[43],0.0327 µM
same,GI50,[44],0.0367 µM
same,TGI,[44],0.101 µM
same,GI50,[45],0.204 µM
same,TGI,[45],1.55 µM
same,GI50,[46],0.0706 µM
same,TGI,[46],0.178 µM
same,GI50,[47],0.189 µM
same,TGI,[47],0.448 µM
same,GI50,[48],0.0236 µM
same,TGI,[48],0.0538 µM
same,GI50,[49],< 0.0134 µM
same,TGI,[49],0.0199 µM
same,GI50,[50],0.351 µM
same,TGI,[50],2.02 µM
same,GI50,[51],0.0441 µM
same,TGI,[51],0.233 µM
same,GI50,[52],0.0256 µM
same,TGI,[52],0.0661 µM
same,GI50,[53],< 0.0144 µM
same,TGI,[53],0.0253 µM
same,GI50,[54],0.0161 µM
same,TGI,[54],0.0308 µM
same,GI50,[55],< 0.0132 µM
same,TGI,[55],< 0.0177 µM
same,GI50,[56],0.0157 µM
same,TGI,[56],0.0311 µM
same,GI50,[57],0.058 µM
same,TGI,[57],0.557 µM
same,GI50,[58],0.0481 µM
same,TGI,[58],0.113 µM
same,GI50,[59],< 0.0177 µM
same,TGI,[59],< 0.0216 µM
C[C@@H]1CN(Cc2ccc(F)cc2)[C@@H](C)CN1C(=O)c1cc2c(C(=O)C(=O)N(C)C)cn(C)c2cc1Cl,GI50,[1],14.8 µM
same,TGI,[1],29.7 µM
same,GI50,[2],22.4 µM
same,TGI,[2],46.9 µM
same,GI50,[3],17.8 µM
same,TGI,[3],32.1 µM
same,GI50,[4],2.8 µM
same,TGI,[4],17.4 µM
same,GI50,[5],12.7 µM
same,TGI,[5],26.9 µM
same,GI50,[6],17.1 µM
same,TGI,[6],31.2 µM
same,GI50,[7],13.6 µM
same,TGI,[7],29.2 µM
same,GI50,[8],17.9 µM
same,TGI,[8],38.9 µM
same,GI50,[9],13.8 µM
same,TGI,[9],35.5 µM
same,GI50,[10],14.9 µM
same,TGI,[10],28.9 µM
same,GI50,[11],14.4 µM
same,TGI,[11],43 µM
same,GI50,[12],19.7 µM
same,TGI,[12],34.1 µM
same,GI50,[13],15.8 µM
same,TGI,[13],31.7 µM
same,GI50,[14],17.1 µM
same,TGI,[14],31.5 µM
same,GI50,[15],15.5 µM
same,TGI,[15],31.1 µM
same,GI50,[16],10.3 µM
same,TGI,[16],23.9 µM
same,GI50,[18],14.1 µM
same,TGI,[18],28.8 µM
same,GI50,[19],15.3 µM
same,TGI,[19],35 µM
same,GI50,[20],12.7 µM
same,TGI,[20],27 µM
same,GI50,[21],15.1 µM
same,TGI,[21],29.6 µM
same,GI50,[22],7.01 µM
same,TGI,[22],20.8 µM
same,GI50,[23],18.3 µM
same,TGI,[23],32.6 µM
same,GI50,[24],20.1 µM
same,TGI,[24],44.5 µM
same,GI50,[25],14.8 µM
same,TGI,[25],28.5 µM
same,GI50,[26],10.8 µM
same,TGI,[26],24.1 µM
same,GI50,[27],23.8 µM
same,TGI,[27],52.3 µM
same,GI50,[28],19.9 µM
same,TGI,[28],52.1 µM
same,GI50,[29],24.1 µM
same,TGI,[29],58.1 µM
same,GI50,[30],16.4 µM
same,TGI,[30],30.7 µM
same,GI50,[31],23.2 µM
same,TGI,[31],61.9 µM
same,GI50,[32],18 µM
same,TGI,[32],40.9 µM
same,GI50,[33],17.2 µM
same,TGI,[33],31.3 µM
same,GI50,[34],1.99 µM
same,TGI,[34],17.2 µM
same,GI50,[35],16.4 µM
same,TGI,[35],31.9 µM
same,GI50,[36],15.4 µM
same,TGI,[36],41 µM
same,GI50,[37],12.9 µM
same,TGI,[37],25.7 µM
same,GI50,[38],10.8 µM
same,TGI,[38],24.1 µM
same,GI50,[39],7.47 µM
same,TGI,[39],20.5 µM
same,GI50,[40],13.6 µM
same,TGI,[40],28.5 µM
same,GI50,[41],15.7 µM
same,TGI,[41],33.8 µM
same,GI50,[42],16.1 µM
same,TGI,[42],30.5 µM
same,GI50,[43],12.7 µM
same,TGI,[43],26.5 µM
same,GI50,[44],19.8 µM
same,TGI,[44],39.3 µM
same,GI50,[45],19.6 µM
same,TGI,[45],42.7 µM
same,GI50,[46],14.2 µM
same,TGI,[46],28.3 µM
same,GI50,[47],18.3 µM
same,TGI,[47],41.6 µM
same,GI50,[48],2.33 µM
same,TGI,[48],14.7 µM
same,GI50,[49],20.7 µM
same,TGI,[49],35.1 µM
same,GI50,[50],17.5 µM
same,TGI,[50],35.3 µM
same,GI50,[51],19.1 µM
same,TGI,[51],37.8 µM
same,GI50,[52],8.17 µM
same,TGI,[52],20.9 µM
same,GI50,[53],16.1 µM
same,TGI,[53],31.6 µM
same,GI50,[54],17.7 µM
same,TGI,[54],31.8 µM
same,GI50,[60],15.3 µM
same,TGI,[60],28.8 µM
same,GI50,[55],12.2 µM
same,TGI,[55],24.7 µM
same,GI50,[56],20.5 µM
same,TGI,[56],38.1 µM
same,GI50,[57],10.9 µM
same,TGI,[57],23.7 µM
same,GI50,[58],18.6 µM
same,TGI,[58],35 µM

# From PubChem BioAssay (NCI)
